Reference: ChEMBL document CHEMBL1201862, “PubChem BioAssay data set” (2004)
The source made the active and inactive calls.

How the values were obtained:
[1] = target: T1, High affinity choline transporter 1 (Homo sapiens, UniProt Q9GZV3); test: human choline transporter potentiators, potency – cell-based, 10-point CRC, membrane potential dye, dose response (AID 602376); format: functional
T1 sequence (Q9GZV3 whole entry): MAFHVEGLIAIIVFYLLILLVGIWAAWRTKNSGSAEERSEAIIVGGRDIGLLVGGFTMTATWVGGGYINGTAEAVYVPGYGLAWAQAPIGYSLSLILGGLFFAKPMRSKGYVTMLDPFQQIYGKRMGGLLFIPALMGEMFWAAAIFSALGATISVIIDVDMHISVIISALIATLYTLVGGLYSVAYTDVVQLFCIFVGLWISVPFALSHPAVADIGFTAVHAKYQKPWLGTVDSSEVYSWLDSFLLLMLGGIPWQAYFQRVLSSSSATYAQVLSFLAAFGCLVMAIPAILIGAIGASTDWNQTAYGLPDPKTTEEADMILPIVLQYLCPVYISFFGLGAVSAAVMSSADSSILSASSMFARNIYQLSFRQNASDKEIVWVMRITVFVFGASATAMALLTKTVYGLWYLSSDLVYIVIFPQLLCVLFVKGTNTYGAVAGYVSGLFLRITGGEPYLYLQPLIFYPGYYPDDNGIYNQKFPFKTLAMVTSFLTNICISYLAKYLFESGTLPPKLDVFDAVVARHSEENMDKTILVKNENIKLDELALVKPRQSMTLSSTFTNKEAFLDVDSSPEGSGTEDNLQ

[2] = loss of viability in HepG2 cells – cell-based, CellTiter-Glo, cherry-picked, cytotoxicity control for Shn3 inhibitor project, dose response (AID 624134); format: functional
[3] = reduction of Shn3 3'UTR-driven luciferase in osteoblasts – cell-based, Clone20 osteoblasts, firefly luciferase, cherry-picked, dose response (AID 624132); format: functional;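 note: firefly luciferase luminescence from reporter carrying the Shn3 3'UTR in osteoblasts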
[4] = test system: CHO; test: CHO cell viability loss, potency – luminescence, cytotoxicity control for TLR9-MyD88 binding inhibitor project, dose response (AID 588339); format: functional, cell-based, hamster; settings: Cricetulus griseus;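 note: CHO cells stably coexpressing TLR9 and MyD88 fusions from primary screen; compound exposure lasted 48 hours before viability readout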
[5] = target: Beta Lactamase (Pseudomonas aeruginosa, UniProt Q932Y6); test: BLA reporter interference, concentration series – BLA reporter cells, FRET fluorescence, artefact control for TLR9-MyD88 binding inhibitor project, dose response (AID 588341); format: cell-based;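 note: cell based assay in CHO-K1 cells stably expressing beta-lactamase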
[6] = non-specific 3'UTR reporter inhibition in Clone20-Shn3RL – cell-based, Renilla luciferase, cherry-picked, counter-screen for Shn3 inhibitor project, dose response (AID 624133); format: functional
[7] = target: T1, High affinity choline transporter 1; test: human choline transporter blockers, potency – cell-based, 5-point CRC, membrane potential dye, dose response (AID 504840); format: functional
[8] = target: T2, Replicative DNA helicase DnaB (Mycobacterium tuberculosis, UniProt P9WMR3); test: DnaB intein splicing inhibitors, dose response, biochemical, cell-free fluorescence (AID 449749); format: functional
T2 sequence (P9WMR3 whole entry): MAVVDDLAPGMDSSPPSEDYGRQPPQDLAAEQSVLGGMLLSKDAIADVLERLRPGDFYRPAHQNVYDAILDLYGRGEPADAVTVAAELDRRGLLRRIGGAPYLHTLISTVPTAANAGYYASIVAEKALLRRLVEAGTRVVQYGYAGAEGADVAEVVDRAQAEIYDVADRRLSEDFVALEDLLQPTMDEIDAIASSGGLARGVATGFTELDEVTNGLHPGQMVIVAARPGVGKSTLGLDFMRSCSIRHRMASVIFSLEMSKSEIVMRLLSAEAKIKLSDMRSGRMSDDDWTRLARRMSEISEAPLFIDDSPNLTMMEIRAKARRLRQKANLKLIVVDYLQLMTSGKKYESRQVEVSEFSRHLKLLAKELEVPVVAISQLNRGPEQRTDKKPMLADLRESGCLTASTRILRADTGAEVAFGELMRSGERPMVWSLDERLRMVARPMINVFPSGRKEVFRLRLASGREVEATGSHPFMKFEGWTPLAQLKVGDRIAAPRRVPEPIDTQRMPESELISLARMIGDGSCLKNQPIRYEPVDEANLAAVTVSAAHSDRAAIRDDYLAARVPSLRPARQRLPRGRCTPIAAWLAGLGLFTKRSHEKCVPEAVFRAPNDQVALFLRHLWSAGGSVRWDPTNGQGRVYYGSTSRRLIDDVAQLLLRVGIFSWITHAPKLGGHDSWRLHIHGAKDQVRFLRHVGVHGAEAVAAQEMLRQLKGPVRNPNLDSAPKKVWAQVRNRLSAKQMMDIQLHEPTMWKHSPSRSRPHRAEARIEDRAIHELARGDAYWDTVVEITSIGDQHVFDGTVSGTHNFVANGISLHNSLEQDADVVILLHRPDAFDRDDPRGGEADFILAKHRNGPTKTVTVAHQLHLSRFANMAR

[9] = target: T3, Protein RecA (Mycobacterium tuberculosis, UniProt P9WHJ3); test: Fluorescence Cell-Free Homogeneous Dose Retest to Identify Inhibitors of RecA-Intein Splicing Activity. [Related pubchem assays (depositor defined):AID2097, AID2223, AID489010, AID492950]; format: functional
T3 sequence (P9WHJ3 whole entry): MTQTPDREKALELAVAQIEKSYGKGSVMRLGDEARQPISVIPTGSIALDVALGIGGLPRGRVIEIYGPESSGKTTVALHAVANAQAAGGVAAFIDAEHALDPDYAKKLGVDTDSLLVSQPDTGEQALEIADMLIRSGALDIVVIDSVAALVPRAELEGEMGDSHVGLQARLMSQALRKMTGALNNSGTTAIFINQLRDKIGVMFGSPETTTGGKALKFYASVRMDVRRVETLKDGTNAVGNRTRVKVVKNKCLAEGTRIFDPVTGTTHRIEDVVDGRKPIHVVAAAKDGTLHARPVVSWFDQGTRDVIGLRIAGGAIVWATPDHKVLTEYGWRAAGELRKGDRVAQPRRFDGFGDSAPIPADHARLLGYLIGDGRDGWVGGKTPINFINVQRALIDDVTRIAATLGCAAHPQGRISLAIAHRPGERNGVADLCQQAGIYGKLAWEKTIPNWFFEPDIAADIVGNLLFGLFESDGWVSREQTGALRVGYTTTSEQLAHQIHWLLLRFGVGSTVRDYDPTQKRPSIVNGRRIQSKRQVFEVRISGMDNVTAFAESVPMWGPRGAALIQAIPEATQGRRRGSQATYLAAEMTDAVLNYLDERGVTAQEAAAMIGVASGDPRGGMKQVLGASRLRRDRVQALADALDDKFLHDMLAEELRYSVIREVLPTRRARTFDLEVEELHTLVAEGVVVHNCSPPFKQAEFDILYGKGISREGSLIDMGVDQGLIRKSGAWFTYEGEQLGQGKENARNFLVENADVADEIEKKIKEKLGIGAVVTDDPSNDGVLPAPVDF

[10] = test system: INS1; test: suppression of NO production in INS-1E cells – cell-based, Griess absorbance, dry powder, set 2, dose response (AID 488868); format: functional; settings: Rattus norvegicus
[11] = target: Melanin-concentrating hormone receptor 1 (Homo sapiens, UniProt Q99705); test: Late-stage fluorescence-based counterscreen for antagonists of the G-protein coupled receptor 7 (GPR7): cell-based dose response assay to identify antagonists of the melanin-concentrating hormone receptor 1 (MCHR1) Set 6.; format: functional
[12] = target: T4, Neuropeptides B/W receptor type 1 (Homo sapiens, UniProt P48145); test: human NPBW1 receptor blockade, IC50 – cell-based, fluorescence, dose response, set 6, late-stage follow-up (AID 588583); format: functional
T4 sequence (P48145 whole entry): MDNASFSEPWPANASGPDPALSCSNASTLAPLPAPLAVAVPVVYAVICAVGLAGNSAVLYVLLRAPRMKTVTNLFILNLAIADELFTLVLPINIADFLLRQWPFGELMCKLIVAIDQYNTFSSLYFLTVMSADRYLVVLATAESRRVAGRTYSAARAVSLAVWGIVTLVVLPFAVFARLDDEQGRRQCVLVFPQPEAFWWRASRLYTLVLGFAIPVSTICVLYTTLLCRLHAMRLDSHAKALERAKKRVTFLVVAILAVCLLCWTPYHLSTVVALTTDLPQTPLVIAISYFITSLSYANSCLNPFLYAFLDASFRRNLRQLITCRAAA

[13] = target: RAC-alpha serine/threonine-protein kinase (Homo sapiens, UniProt P31749); format: functional;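 note: AKT1 affinity measured as one member of a kinome-wide kinase profiling panel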
[14] = target: RAC-gamma serine/threonine-protein kinase (Homo sapiens, UniProt Q9Y243); format: functional
[15] = target: Homeodomain-interacting protein kinase 2 (Homo sapiens, UniProt Q9H2X6); format: functional;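 note: measured within a kinome-wide kinase profiling panel, HIPK2 being one panel member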
[16] = target: MAP kinase-activated protein kinase 5 (Homo sapiens, UniProt Q8IW41); format: functional;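 note: measured as one member of a kinome panel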
[17] = target: Serine/threonine-protein kinase pim-3 (Homo sapiens, UniProt Q86V86); format: functional;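 note: value obtained as one member of a broad kinase panel profiling effort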
[18] = target: Calcium/calmodulin-dependent protein kinase type II subunit beta (Homo sapiens, UniProt Q13554); format: functional
[19] = target: Casein kinase I isoform alpha (Homo sapiens, UniProt P48729); format: functional
[20] = target: Mitogen-activated protein kinase 14 (Homo sapiens, UniProt Q16539); format: functional;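 note: part of a kinome-wide panel, MAPK14 entry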
[21] = target: Cyclin-dependent kinase 9 (Homo sapiens, UniProt P50750); format: functional;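 note: value from the CDK9 entry of a kinome-spanning kinase panel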
[22] = target: cGMP-dependent protein kinase 1 (Homo sapiens, UniProt Q13976); format: functional;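 note: value from a kinome panel screen with PRKG1 as the panel member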
[23] = target: Serine/threonine-protein kinase pim-1 (Homo sapiens, UniProt P11309); format: functional
[24] = target: Dual specificity tyrosine-phosphorylation-regulated kinase 1B (Homo sapiens, UniProt Q9Y463); test: Navigating the Kinome. Panel member name: DYRK1B; format: functional
[25] = target: Serine/threonine-protein kinase D2 (Homo sapiens, UniProt Q9BZL6); format: functional;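 note: measured against PRKD2 as one member of a kinome-wide kinase profiling panel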
[26] = target: Dual specificity tyrosine-phosphorylation-regulated kinase 4 (Homo sapiens, UniProt Q9NR20); format: functional
[27] = target: Calcium/calmodulin-dependent protein kinase kinase 2 (Homo sapiens, UniProt Q96RR4); test: Navigating the Kinome. Panel member name: CAMKK2; format: functional
[28] = target: Protein kinase C iota type (Homo sapiens, UniProt P41743); format: functional;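 note: measured within a kinome-wide kinase panel, PRKCI as panel member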
[29] = target: T5, cAMP-dependent protein kinase catalytic subunit PRKX (Homo sapiens, UniProt P51817); format: functional
T5 sequence (P51817 whole entry): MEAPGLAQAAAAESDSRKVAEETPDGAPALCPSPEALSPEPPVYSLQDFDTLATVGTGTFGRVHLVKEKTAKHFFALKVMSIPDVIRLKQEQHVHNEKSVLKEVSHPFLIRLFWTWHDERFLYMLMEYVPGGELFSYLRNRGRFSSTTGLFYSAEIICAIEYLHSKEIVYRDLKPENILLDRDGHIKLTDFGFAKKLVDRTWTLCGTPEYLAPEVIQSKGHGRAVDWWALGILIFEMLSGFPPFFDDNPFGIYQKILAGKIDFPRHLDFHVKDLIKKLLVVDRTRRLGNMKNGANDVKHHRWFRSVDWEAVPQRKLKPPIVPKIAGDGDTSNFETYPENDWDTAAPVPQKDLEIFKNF

[30] = target: Casein kinase I isoform delta (Homo sapiens, UniProt P48730); format: functional;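 note: measured as one member (CSNK1D) of a kinome panel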
[31] = target: Protein kinase C gamma type (Homo sapiens, UniProt P05129); format: functional
[32] = target: Serine/threonine-protein kinase pim-2 (Homo sapiens, UniProt Q9P1W9); format: functional;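 note: value comes from a broad kinase panel profiling study in which PIM2 was one of the panel members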

Chain of Dual specificity tyrosine-phosphorylation-regulated kinase 1B (Q9Y463 whole entry): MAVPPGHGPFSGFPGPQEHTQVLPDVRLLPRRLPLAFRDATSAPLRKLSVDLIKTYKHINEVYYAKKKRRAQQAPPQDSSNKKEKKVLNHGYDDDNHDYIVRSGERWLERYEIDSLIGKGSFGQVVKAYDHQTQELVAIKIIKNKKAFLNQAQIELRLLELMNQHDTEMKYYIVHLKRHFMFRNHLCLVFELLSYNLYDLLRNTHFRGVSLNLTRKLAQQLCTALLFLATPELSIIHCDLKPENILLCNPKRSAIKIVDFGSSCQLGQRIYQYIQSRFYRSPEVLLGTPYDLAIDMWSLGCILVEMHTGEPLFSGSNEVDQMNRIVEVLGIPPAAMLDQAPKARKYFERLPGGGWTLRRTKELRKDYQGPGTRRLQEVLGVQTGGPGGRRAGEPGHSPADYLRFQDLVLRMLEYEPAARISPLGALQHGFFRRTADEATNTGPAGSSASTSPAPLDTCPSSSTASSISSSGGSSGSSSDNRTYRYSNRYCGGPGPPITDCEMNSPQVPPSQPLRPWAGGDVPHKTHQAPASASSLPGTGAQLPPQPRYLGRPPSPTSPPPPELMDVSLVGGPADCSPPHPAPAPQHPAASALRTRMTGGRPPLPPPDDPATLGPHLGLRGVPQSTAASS
Chain of cGMP-dependent protein kinase 1 (Q13976 whole entry): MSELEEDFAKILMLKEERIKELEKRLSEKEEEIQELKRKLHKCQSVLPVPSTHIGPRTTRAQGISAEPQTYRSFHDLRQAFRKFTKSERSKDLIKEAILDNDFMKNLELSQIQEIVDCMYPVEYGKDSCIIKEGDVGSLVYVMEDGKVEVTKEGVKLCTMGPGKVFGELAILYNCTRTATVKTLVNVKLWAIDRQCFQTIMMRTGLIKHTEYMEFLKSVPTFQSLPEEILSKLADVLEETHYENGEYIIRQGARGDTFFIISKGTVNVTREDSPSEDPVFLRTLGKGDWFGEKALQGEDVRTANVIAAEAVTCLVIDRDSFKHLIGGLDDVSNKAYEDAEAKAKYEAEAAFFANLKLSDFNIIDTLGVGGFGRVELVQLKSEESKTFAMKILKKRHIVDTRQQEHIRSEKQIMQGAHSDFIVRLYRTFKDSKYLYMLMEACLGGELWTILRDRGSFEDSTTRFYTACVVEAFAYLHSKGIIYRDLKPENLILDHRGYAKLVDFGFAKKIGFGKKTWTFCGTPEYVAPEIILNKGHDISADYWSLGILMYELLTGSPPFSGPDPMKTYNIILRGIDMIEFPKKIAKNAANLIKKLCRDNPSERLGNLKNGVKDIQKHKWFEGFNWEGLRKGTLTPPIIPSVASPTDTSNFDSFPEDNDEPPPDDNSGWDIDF
Chain of Serine/threonine-protein kinase D2 (Q9BZL6 whole entry): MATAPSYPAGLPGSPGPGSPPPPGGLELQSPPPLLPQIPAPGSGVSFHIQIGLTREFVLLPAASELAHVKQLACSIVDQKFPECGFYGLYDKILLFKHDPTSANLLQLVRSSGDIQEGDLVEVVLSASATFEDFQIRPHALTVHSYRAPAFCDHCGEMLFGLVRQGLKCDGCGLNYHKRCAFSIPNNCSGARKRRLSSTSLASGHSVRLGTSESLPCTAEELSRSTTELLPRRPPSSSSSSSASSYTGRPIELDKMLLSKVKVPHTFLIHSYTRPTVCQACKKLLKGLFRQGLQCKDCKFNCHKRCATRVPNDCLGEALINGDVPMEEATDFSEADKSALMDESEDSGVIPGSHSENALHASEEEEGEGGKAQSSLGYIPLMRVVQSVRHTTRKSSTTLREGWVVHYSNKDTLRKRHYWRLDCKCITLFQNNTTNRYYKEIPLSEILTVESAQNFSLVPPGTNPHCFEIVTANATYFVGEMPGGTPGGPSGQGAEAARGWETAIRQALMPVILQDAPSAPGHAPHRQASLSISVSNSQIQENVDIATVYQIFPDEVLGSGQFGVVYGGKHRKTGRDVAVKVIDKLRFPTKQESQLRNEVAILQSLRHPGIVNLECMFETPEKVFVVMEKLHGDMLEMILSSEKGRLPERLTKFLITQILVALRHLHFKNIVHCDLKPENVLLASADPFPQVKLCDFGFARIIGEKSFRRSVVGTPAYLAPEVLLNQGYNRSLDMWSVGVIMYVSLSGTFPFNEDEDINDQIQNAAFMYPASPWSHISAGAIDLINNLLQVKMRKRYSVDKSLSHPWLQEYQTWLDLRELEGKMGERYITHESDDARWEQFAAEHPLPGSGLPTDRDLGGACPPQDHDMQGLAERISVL
Chain of Casein kinase I isoform delta (P48730 whole entry, canonical isoform): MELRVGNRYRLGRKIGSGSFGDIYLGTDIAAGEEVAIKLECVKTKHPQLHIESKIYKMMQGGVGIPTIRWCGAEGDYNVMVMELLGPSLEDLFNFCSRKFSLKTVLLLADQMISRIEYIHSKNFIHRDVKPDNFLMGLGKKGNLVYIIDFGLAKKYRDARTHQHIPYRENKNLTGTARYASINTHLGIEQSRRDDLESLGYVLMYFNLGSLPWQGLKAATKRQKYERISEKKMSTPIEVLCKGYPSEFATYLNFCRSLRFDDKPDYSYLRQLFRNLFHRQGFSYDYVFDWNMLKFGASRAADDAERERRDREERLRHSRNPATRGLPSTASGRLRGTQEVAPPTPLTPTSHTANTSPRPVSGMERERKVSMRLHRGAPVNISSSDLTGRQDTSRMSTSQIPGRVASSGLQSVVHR
Chain of Melanin-concentrating hormone receptor 1 (Q99705 whole entry): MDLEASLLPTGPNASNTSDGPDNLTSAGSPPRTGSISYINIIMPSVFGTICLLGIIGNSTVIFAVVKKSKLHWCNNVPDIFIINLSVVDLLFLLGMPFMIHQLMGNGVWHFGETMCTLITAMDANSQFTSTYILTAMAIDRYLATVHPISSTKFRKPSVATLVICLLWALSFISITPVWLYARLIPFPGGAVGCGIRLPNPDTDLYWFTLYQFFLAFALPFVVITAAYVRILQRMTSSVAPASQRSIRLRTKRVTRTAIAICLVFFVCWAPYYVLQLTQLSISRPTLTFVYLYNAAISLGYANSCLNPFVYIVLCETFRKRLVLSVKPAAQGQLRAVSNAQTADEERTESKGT
Chain of Homeodomain-interacting protein kinase 2 (Q9H2X6 whole entry): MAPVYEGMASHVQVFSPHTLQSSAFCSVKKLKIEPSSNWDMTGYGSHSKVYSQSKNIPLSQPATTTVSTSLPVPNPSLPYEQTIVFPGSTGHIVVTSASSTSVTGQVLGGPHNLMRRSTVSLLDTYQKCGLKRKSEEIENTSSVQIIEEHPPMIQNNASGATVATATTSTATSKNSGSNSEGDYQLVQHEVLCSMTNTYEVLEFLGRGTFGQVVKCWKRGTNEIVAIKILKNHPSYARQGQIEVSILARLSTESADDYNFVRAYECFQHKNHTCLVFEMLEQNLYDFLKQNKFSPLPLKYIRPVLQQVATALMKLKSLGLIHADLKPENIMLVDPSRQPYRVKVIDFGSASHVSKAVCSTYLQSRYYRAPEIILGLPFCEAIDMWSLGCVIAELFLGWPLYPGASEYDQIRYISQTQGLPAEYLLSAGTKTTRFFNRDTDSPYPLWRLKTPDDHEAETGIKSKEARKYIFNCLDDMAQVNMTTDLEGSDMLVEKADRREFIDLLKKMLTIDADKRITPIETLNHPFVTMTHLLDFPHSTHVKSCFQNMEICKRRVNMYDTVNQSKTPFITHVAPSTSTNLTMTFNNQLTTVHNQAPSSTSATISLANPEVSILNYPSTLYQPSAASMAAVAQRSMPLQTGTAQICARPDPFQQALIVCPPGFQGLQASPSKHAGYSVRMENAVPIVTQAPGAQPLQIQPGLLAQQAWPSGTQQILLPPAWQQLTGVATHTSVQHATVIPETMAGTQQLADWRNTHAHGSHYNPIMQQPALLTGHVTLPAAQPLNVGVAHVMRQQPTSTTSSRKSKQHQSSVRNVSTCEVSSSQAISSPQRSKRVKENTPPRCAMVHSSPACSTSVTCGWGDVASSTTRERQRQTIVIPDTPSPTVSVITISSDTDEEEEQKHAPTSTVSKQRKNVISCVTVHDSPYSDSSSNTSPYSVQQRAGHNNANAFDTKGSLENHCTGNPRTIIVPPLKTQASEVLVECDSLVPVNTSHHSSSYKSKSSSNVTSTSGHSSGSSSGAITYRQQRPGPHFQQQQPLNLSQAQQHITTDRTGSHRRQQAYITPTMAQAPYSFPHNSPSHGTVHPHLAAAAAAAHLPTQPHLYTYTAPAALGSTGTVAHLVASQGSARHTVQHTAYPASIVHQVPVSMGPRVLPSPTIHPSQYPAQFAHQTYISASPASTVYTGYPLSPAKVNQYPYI
Chain of Mitogen-activated protein kinase 14 (Q16539 whole entry): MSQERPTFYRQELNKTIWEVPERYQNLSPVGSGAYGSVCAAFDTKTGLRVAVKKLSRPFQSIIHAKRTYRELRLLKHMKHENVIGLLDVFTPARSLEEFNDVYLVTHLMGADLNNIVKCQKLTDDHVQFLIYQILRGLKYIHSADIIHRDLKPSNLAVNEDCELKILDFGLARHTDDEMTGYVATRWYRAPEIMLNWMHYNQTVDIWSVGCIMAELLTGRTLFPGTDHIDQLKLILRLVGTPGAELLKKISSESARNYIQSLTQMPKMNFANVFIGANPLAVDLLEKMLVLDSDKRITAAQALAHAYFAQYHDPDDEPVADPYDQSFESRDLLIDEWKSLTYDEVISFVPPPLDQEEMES

Which EC50 [1] does the source give for COc1ccc(N2C(=O)/C(=C\c3ccco3)N=C2SCC(=O)N(C(C)C)C(C)C)cc1Cl here?
Its EC50 is 17.6 µM (active).

Which AC50 [2] does the source give for COc1cccc(NC(=O)c2nc(S(C)(=O)=O)ncc2Cl)c1 here?
Its AC50 is 22 µM (active).

And the AC50 [3]?
Its AC50 is 0.834 µM (active).

And the IC50 [4]?
Its IC50 is 5.41 µM (active).

What about the IC50 [5] of the same compound?
The IC50 was 8.9 µM (active).

What about the AC50 [6] of the same compound?
Its AC50 is 11.5 µM (active).

And the IC50 [7]?
The IC50 was 14.5 µM (active).

And the AC50 [8]?
Its AC50 is 0.111 µM (inconclusive).

What about the EC50 [9] of the same compound?
Its EC50 is 6.17 µM (active).

With C[C@@H]1CN([C@@H](C)CO)C(=O)c2cccc(NC(=O)Nc3cccc4ccccc34)c2O[C@H]1CN(C)S(=O)(=O)c1ccccc1 as the compound, how does the AC50 [10] read?
Its AC50 is 36.1 µM (active).

For N#CC(c1ccc(C(F)(F)F)cc1)c1c(Cl)cnn(Cc2cccc3ccccc23)c1=O (configuration not stated), which IC50 [11] is on record?
The IC50 was 0.699 µM (active).

What about the IC50 [12] of the same compound?
The IC50 was 0.699 µM (active).

For COc1cc(Nc2ncc(F)c(Nc3ccc4c(n3)NC(=O)C(C)(C)O4)n2)cc(OC)c1OC [R-406], which Ki [13] is on record?
The Ki was > 7.94 µM (inactive).

And the Ki [14]?
The Ki was > 10 µM (inactive).

And the Ki [15]?
The Ki was 0.2 µM (active).

What about the Ki [16] of the same compound?
Its Ki is > 1.58 µM (inactive).

And the Ki [17]?
Its Ki is 0.631 µM (active).

And the Ki [18]?
Its Ki is > 7.94 µM (inactive).

And the Ki [19]?
Its Ki is > 5.01 µM (inactive).

And the Ki [20]?
The Ki was > 3.98 µM (inactive).

And the Ki [21]?
The Ki was > 1.58 µM (inactive).

And the Ki [22]?
Its Ki is > 2 µM (inactive).

What about the Ki [23] of the same compound?
Its Ki is > 6.31 µM (inactive).

What about the Ki [24] of the same compound?
Its Ki is > 2.51 µM (inactive).

What about the Ki [25] of the same compound?
The Ki was 0.631 µM (active).

What about the Ki [26] of the same compound?
The Ki was 1.58 µM (active).

And the Ki [27]?
The Ki was > 2.51 µM (inactive).

And the Ki [28]?
Its Ki is > 5.01 µM (inactive).

And the Ki [29]?
Its Ki is > 2.51 µM (inactive).

And the Ki [30]?
The Ki was > 7.94 µM (inactive).

What about the Ki [31] of the same compound?
The Ki was 0.251 µM (active).

And the Ki [32]?
The Ki was > 1.58 µM (inactive).
